Values of other authors as cited in patent US9421272B2, “Nanocarrier compositions and methods” (RUTGERS, THE STATE UNIVERSITY OF NEW JERSEY, priority 2009, dated 2016).

Legend:
[1] = disulfide bond; relative to cysteamine linker
PepT1 = target: T1, PepT1 (Homo sapiens, UniProt P46059); conditions: interaction between valacyclovir and PepT1
T1 sequence (P46059 1-708): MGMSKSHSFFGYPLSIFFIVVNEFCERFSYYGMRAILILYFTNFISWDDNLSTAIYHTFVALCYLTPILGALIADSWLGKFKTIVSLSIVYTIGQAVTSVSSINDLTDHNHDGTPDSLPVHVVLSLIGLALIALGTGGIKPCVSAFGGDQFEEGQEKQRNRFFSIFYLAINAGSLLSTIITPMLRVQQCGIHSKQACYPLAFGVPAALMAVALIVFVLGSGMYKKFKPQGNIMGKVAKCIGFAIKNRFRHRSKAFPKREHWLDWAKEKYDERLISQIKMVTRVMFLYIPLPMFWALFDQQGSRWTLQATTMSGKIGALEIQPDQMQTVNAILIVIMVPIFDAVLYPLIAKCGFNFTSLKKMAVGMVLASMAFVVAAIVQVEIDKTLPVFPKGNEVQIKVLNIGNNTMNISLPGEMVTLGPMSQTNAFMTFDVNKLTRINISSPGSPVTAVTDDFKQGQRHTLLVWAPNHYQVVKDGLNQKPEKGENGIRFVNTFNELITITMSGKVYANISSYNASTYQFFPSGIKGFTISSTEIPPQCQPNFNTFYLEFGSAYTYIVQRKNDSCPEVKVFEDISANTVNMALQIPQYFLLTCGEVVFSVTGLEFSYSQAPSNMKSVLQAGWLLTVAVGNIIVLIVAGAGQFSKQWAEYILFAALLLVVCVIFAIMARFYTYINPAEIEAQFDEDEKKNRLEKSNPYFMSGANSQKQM

[2] = compared to the counterpart with a 5 kDa linear PEG

CC(C)(S)CN [1-amino-2-methyl-2-propanethiol]
degradation rate, slower than the corresponding less hindered cysteamine linker [1]: about 100 times

CC(C)[C@H](N)C(=O)OCCOCn1cnc2c(=O)[nH]c(N)nc21 [valacyclovir]
increase in the bioavailability of acyclovir (PepT1): three to four-fold increase

B1: branched 10 kDa PEG to asparaginase: asparaginase bound to a branched 10 kDa PEG (conjugate, UniProt P00805 23-348, looked up)
L-asparaginase 2: LPNITILATGGTIAGGGDSATKSNYTVGKVGVENLVNAVPQLKDIANVKGEQVVNIGSQDMNDNVWLTLAKKINTDCDKTDGFVITHGTDTMEETAYFLDLTVKCDKPVVMVGAMRPSTSMSADGPFNLYNAVVTAADKASANRGVLVVMNDTVLDGRDVTKTNTTDVATFKSVNYGPLGYIHNGKIDYQRTPARKHTSDTPFDVSKLNELPKVGIVYNYANASDLPAKALVDAGYDGIVSAGVGNGNLYKSVFDTLATAAKTGTAVVRSSRVPTGATTQDAEVDDAKYGFVASGTLNPQKARVLLQLALTQTKDPQQIQQIFNQY
modifications: branched 10 kDa PEG
reduction of antigenicity [2]: 10 fold
